Assay results: ChEMBL document CHEMBL5465560, “Selectivity Literature for EUbOPEN Chemogenomic Library” (2024)

Assays:
[1] = target: T1, Tyrosine-protein kinase ITK/TSK (Homo sapiens) (UniProt Q08881); test: Selectivity interaction (KinomeScan (DiscoverX)) EUB0000655a ITK; settings: at 10 µM
T1 sequence (whole entry): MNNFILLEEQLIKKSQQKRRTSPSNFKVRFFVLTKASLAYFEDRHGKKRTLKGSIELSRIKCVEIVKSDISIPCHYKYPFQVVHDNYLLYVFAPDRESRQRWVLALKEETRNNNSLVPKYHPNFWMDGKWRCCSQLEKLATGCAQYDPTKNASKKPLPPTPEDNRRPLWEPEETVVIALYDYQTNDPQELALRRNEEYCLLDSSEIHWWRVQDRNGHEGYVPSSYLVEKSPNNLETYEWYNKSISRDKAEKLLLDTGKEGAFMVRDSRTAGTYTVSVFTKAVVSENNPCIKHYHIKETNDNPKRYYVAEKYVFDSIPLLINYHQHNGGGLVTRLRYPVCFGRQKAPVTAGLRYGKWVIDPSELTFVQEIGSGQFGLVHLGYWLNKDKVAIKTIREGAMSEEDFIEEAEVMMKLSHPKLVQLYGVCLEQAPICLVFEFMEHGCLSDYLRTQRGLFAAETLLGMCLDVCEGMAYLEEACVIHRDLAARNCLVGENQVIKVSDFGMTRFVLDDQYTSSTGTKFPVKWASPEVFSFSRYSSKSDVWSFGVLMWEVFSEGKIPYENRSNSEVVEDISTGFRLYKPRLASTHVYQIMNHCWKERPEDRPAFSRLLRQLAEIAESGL

[2] = Selectivity interaction (RapidFire MS assay (using full-length mouse protein MGAT2)) EUB0001079a MGAT2
[3] = target: T2, Ephrin type-B receptor 4 (Homo sapiens) (UniProt P54760); test: Selectivity interaction (KinomeScan (DiscoverX)) EUB0000666a EPHB4; settings: at 10 µM
T2 sequence (whole entry): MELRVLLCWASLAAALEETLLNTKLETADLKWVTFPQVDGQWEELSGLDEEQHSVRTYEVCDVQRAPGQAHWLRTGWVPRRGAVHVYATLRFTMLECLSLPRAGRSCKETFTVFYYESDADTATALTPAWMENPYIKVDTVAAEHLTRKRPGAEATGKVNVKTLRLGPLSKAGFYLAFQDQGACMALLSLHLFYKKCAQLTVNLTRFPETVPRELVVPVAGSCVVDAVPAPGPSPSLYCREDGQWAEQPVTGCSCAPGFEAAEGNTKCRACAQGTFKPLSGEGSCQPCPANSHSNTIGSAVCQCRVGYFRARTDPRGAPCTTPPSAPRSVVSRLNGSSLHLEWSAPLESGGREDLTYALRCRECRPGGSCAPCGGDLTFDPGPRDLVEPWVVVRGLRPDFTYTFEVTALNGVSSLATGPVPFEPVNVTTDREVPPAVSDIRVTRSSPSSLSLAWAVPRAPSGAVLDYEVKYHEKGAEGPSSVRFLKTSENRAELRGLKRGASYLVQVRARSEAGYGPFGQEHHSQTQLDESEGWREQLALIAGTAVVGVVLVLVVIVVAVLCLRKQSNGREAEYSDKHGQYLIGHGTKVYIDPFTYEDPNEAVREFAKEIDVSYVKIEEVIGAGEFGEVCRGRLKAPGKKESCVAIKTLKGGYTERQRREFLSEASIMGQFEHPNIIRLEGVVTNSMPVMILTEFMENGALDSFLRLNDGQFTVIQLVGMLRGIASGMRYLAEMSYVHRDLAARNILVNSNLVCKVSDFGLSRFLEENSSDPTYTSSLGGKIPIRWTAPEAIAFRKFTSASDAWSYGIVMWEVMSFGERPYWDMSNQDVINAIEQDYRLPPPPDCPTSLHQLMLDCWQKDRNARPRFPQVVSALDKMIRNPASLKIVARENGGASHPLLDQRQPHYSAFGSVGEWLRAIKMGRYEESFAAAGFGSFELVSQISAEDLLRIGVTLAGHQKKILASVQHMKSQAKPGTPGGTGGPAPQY

[4] = target: Receptor-type tyrosine-protein kinase FLT3 (Homo sapiens) (UniProt P36888); test: (§1) Selectivity interaction (KinomeScan (DiscoverX)) EUB0000607a FLT3; settings: at 10 µM
[5] = system: T3, Receptor-type tyrosine-protein kinase FLT3 (Homo sapiens), P36888 [K663Q]; test: as §1; settings: at 10 µM
T3 sequence (whole entry): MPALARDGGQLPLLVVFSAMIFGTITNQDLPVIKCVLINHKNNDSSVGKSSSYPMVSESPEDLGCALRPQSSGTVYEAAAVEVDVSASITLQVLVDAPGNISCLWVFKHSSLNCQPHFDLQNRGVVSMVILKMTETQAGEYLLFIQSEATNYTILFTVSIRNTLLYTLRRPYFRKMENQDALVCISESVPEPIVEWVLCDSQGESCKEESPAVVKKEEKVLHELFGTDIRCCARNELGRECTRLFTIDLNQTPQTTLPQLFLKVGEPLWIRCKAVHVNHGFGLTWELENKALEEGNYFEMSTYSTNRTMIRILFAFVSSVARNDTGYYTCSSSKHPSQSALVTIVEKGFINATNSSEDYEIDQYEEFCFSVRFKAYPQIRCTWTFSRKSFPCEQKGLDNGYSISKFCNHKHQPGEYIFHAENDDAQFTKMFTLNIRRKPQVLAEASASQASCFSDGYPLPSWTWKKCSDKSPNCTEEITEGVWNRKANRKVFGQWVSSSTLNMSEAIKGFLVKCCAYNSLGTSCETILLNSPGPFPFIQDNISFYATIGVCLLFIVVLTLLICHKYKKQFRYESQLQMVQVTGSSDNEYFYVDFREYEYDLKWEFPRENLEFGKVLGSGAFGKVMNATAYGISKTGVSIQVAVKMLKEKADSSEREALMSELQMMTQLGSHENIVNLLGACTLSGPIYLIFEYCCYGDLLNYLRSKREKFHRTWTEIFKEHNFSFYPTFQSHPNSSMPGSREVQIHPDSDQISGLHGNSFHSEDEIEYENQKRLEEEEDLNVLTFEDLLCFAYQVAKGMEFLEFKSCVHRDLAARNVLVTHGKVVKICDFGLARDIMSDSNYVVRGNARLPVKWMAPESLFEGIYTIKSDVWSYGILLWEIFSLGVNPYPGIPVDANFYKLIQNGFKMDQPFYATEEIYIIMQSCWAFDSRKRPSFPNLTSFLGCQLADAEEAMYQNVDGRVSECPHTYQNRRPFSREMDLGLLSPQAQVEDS

CN(C)CCOc1ccc(-c2nc(-c3ccncc3)c(-c3ccc4c(c3)CC/C4=N\O)[nH]2)cc1
% of control [1]: 98%

Nc1cnc(N2CCc3cc(S(=O)(=O)Nc4c(F)cc(Cl)cc4F)cc(N4CCCC4=O)c32)nc1 [TP-020n]
IC50 [2]: 530 nM

O=C(NOC[C@H](O)CO)c1ccc(F)c(F)c1Nc1ccc(I)cc1F
% of control [3]: 100%

CNC(=O)Nc1ccc(-c2nc(N3CC4CCC(C3)O4)c3cnn(C4CCC5(CC4)OCCO5)c3n2)cc1
% of control [4]: 75%
% of control [5]: 69%
